Reference: patent publication US9056891B2, “Synthetic peptide inhibitors of Wnt pathway” (The United States of America, as represented by the …, priority 2010, dated 2015)
Where a SMILES comes first, the peptide text is derived from it. [ ]: non-standard residue; d: D form. The star is where a group is joined. Palmitoyl = CCCCCCCCCCCCCCCC(=O)*

Legend:
[1] = test system: HT-29 cells; type: cell-based; conditions: 48 h
Method: (§1) HeLa, U3A, RKO, HCT-116, and HT-29 cells were exposed to the CT-HC-1, CT-HC-3, CT-HC-5, and CT-HC-8 inhibitors of Example 1 for 48 hours in medium containing 1% bovine fetal serum, and the resulting cell number was evaluated using a MTT assay. Each of these cell lines is relevant to the evaluation of Wnt signaling. Cervical carcinoma HeLa cells overexpress β-catenin (see, e.g., Lee et al., Int. J. Cancer, 124(2): 287-297 (2009); and Lee et al., Gynecol. Oncol., 109(2): 270-274 (2008)). β-catenin is activated in colon carcinoma RKO due to mutation in CDX2 (see, e.g., Dang et al., Oncogene, 20(35): 4884-4890 (2001)). Colon adenocarcinoma HCT116 has elevated mutated β-catenin; however, it was found in the past to be resistant to down regulation of β-catenin (see, e.g., Chan et al., Proc. Natl. Acad. Sci. USA, 99(12): 8265-8270 (2002); and Handeli et al., Mol. Cancer Ther., 7(3): 521-529 (2008)). Colon carcinoma HT-29 has truncated adenomatous polyposis coli (APC) protein, which is a common cause of canonical Wnt pathway activation in colon malignancies. Fibrosarcoma U3A cells are STAT1-negative and have uncharacterized status of Wnt pathway.
(§2) The ability of CT-HC-1 to inhibit growth and to kill cancer cells at different concentrations was further investigated in HeLa, U3A, RKO, HCT-116, and HT-29 cells. The cells were stained with Promega Non-Radioactive Cell Proliferation Assay Kit (MTT) according to the manufacture's protocol. The absorbance of the wells was determined at 544 nm by a FLUOstar/POLARstar Galaxy (BMG Lab Technologies GmbH) Microplate Reader. The assays were performed on control (C) and test (T) cells. Untreated cells were used as a control. Cellular responses were calculated from the data using the following formula: 100×[(T−T0)/(C−T0)] for T>T0 and 100×[(T−T0)/T0] for T<T0. T0 corresponds to cell density at the time of drug addition.

[2] = test system: HeLa cells; type: cell-based; conditions: 48 h
Method: as §1, §2

[3] = test system: RKO cells; type: cell-based; conditions: 48 h
Method: as §1, §2

[4] = test system: U3A cells; type: cell-based; conditions: 48 h
Method: as §1, §2

[5] = test system: HCT-116 cells; type: cell-based, human; conditions: 48 h
Method: as §1, §2

[6] = test system: SW480 cells; assay: Toxicity (growth inhibition) for SW-480 cells; type: cell-based, human; design: unit not given here
Method: (§3) Further optimization and testing of inhibitors was performed using this cell line. Table 5 presents toxicity data for select inhibitors for 4T1 cells and human colon cancer cell line SW-480, wherein GI50 is the concentration providing 50% growth inhibition and TGI is the total growth inhibition.

[7] = test system: 4T1 cells; assay: Toxicity (growth inhibition) for 4T1 cells; type: cell-based, mouse
Method: To identify a mouse model for preclinical development of compounds, mouse cell lines were tested for (1) growth inhibition by the compounds and (2) the levels of constitutive Wnt signaling TCF-reporter activity using transfection of cell with TCF/LEF-responsive firefly luciferase construct. The data further confirmed that sensitivity to compounds correlated well with the levels of canonical Wnt signaling.
Based on the data, mouse breast cancer cell line 4T1 was selected for in vivo testing.
as §3

[8] = test system: RKO, HT-29, HCT-116, SW-480, and SW-620 cells; assay: Cell viability of colon cancer cells (FIGS. 2A-C); type: cell-based; conditions: increasing concentrations, HT-29, HCT-116, SW-480, SW-620
Method: The concentration (μM) of the peptide inhibitor is indicated on the x-axis and the percent viability is indicated on the y-axis.
A similar experiment was performed using RKO, HT-29, HCT-116, SW-480, and SW-620 cells. Colorectal adenocarcinoma SW-480 and SW-620 cells have truncated APC protein, which—as discussed above—is a common cause of canonical Wnt pathway activation in colon malignancies.

[9] = test system: 4T1 mouse breast cancer cells; assay: Colony formation by 4T1 cells; type: cell-based; conditions: 5 μM and 10 μM
Source text: The activity of compounds in inhibiting colony formation by 4T1 cells was also investigated, which test provides a prediction for compound's potency in vivo.

[10] = target: T1, GFP-tagged beta-catenin (Homo sapiens, UniProt P35222); assay: Microscale thermophoresis of GFP-tagged beta-catenin; type: binding; conditions: HEK293 lysate, membrane-mimicking bicelles, Hill fit
T1 construct: made in house; host or cells: HEK293 cells (unpurified lysate)
T1 sequence (P35222 1-781): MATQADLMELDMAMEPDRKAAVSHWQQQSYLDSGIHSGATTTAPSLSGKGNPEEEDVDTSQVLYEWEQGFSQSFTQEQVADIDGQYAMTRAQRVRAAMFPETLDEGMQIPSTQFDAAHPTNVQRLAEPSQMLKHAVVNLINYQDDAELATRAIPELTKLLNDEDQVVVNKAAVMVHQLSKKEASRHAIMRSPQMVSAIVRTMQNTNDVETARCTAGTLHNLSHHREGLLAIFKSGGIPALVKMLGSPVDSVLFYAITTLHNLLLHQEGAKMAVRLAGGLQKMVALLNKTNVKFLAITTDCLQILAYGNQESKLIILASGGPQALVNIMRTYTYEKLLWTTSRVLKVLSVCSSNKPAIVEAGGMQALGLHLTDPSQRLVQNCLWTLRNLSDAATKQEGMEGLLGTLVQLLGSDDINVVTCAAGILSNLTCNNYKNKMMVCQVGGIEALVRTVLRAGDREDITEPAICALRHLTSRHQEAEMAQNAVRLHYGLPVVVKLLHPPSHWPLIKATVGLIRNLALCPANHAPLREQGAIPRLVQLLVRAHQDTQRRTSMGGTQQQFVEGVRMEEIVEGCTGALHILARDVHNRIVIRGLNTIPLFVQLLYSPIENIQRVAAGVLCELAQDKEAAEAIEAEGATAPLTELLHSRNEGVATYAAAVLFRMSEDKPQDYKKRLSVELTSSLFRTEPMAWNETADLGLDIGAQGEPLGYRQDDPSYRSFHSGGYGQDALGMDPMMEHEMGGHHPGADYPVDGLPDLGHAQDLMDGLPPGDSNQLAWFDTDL
Method: Briefly, beta-catenin was overexpressed as a GFP-fusion in HEK293 cells. The cells were lysed with ultrasound, and the resulting lysate was mixed with increasing concentrations of CT-HC-5 in the presence of membrane-mimicking bicelles. Thermophoretic mobility was measured in standard capillaries on Monolith NT.115 (NanoTemper Technologies).

Question: Which results are given for CCCCCCCCCCCCCCCC(=O)N[C@@H](C(=O)N[C@H](CCCNC(=N)N)C(=O)N[C@H](Cc1ccccc1)C(=O)N[C@H](CC(C)C)C(=O)N[C@H](CO)C(=O)N[C@H](CO)C(=O)N[C@@H](C(=O)N[C@H](CC(C)C)C(=O)N[C@H](CCC(=O)O)C(=O)N[C@@H](C(=O)N[C@H](CO)C(=O)N[C@H](CC(C)C)C(=O)N[C@H](CCCNC(=N)N)C(=O)N[C@H](CCCCN)C(=O)N[C@H](CCCCN)C(N)=O)C(C)C)[C@H](C)O)[C@H](C)O [CT-HC-5, Pal-TRFLSSTLEVSLRKK-NH2] (Palmitoyl-[dT][dR][dF][dL][dS][dS][dT][dL][dE][dV][dS][dL][dR][dK][dK]-NH2)?
Answer: GI50 [1]: 2000 ± 100 nM; GI50 [2]: 1200 ± 90 nM; GI50 [3]: 1150 ± 50 nM; GI50 [4]: 1500 ± 100 nM; GI50 [5]: 2400 ± 400 nM; SW480 cells TGI (total growth inhibition) [6]: 2.5; 4T1 cells TGI (total growth inhibition) [7]: > 5000 nM; cell viability [8]: suppression of cell viability; colony formation by 4T1 cells [9]: inhibited colony formation; Kd [10]: 2700 ± 200 nM
